The target of this test is human GPR40 receptor (Homo sapiens, UniProt O14842). Briefly: IP1 accumulation measurements using the IPOne assay system in 1321N1 cells stably expressing human GPR40 receptor. Type of test: cell-based. The settings on record: IP1 accumulation (HTRF), 1321N1 cells stably expressing human GPR40, 1 hour stimulation at 37° C. On the procedure:
IP1 accumulation measurements using the IPOne assay system—1321N1 cells stably expressing human GPR40 receptor (Euroscreen, Belgium) are seeded 24 h before the assay in black clear-bottom collagen-coated or white 384-well plates in culture medium containing 10% FCS, 1% Na-Pyruvate and 400 μg/mL G418. IP1 is assayed according to the Manufacturer's description (Cisbio Bioassays, France). In brief, the assay is started by substitution of the culture medium by stimulation buffer (Hepes 10 mM, CaCl2 1 mM, MgCl2 0.5 mM, KCl 4.2 mM, NaCl 146 mM and glucose 5.5 mM, pH 7.4) without LiCl or with […]. Cells are stimulated for 1 hour at 37° C., 5 or 10% CO2 by addition of the compounds that are diluted in stimulation buffer containing LiCl yielding a final LiCl concentration of 50 mM. Assays are stopped by adding HTRF-conjugates (IP1-d2 and Anti-IP1 cryptate Tb) and lysis buffer, provided by the manufacturer. After an incubation time of 1 hour at room temperature plates are measured using an EnVision™, Perkin Elmer. The obtained fluorescence ratios at […] are then used to calculate the pEC50 values using GraphPad Prism 5 (Graphpad Software Inc, USA) or Assay Explorer 3.3 Software (Accelrys, Inc.) by interpolation using an IP1 reference curve and subsequent sigmoidal curve fitting allowing for a variable hill slope.
A general note: In TR-FRET formats the signal depends on donor and acceptor labels being close together.

Each structure is given as a SMILES string.

human GPR40 receptor, sequence (O14842 whole entry): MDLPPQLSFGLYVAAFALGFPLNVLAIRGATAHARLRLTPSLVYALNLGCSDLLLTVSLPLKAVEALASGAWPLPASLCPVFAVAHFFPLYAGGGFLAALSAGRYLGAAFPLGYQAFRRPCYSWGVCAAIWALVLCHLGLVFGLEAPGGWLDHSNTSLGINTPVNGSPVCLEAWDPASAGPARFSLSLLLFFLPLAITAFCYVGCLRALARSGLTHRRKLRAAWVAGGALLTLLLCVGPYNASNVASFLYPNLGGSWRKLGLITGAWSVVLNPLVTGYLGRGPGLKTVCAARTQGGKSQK

Turning to `O=C(O)C1CC1c1ccc(O[C@@H]2CCc3c2cccc3C(F)(F)F)cc1` (stereo in doubt) [Example 2, 2-[4-((R)-4-Trifluoromethyl-indan-1-yloxy)-phenyl]-trans-cyclopropanecarboxylic acid], the EC50 turned out to be 15 nM.
The molecule `O=C(O)C1CC1c1ccc(O[C@@H]2CCc3cc(C(F)(F)F)ccc32)cc1` (stereo in doubt) [Example 3, 2-[4-((R)-5-Trifluoromethyl-indan-1-yloxy)-phenyl]-trans-cyclopropanecarboxylic acid] yielded a half-maximal effective concentration (EC50) of 36 nM.
Under `O=C(O)C1CC1c1ccc(O[C@@H]2CCc3c(OC(F)(F)F)cccc32)cc1` (stereo in doubt) [Example 4, 2-[4-((R)-4-Trifluoromethoxy-indan-1-yloxy)-phenyl]-trans-cyclopropanecarboxylic acid] stands 18 nM; under `O=C(O)C1CC1c1ccc(O[C@@H]2CCc3c2cccc3C(F)(F)F)cc1F` (stereo in doubt) [Example 5, 2-[4-((R)-4-Trifluoromethyl-indan-1-yloxy)-2-fluorophenyl]-trans-cyclopropanecarboxylic acid], 85 nM; under `O=C(O)C1CC1c1ccc(O[C@@H]2CCc3c(OC(F)(F)F)cccc32)cc1F` (stereo in doubt) [Example 6, 2-[4-((R)-4-Trifluoromethoxy-indan-1-yloxy)-2-fluorophenyl]-trans-cyclopropanecarboxylic acid], 98 nM.
In turn, `COc1cc(O[C@@H]2CCc3c2cccc3C(F)(F)F)ccc1C1CC1C(=O)O` (stereo in doubt) [Example 7, 2-[4-((R)-4-Trifluoromethyl-indan-1-yloxy)-2-methoxyphenyl]-trans-cyclopropanecarboxylic acid] gave a concentration giving a half-maximal response (EC50) of 531 nM.
Turning to `Cc1cccc(C)c1-c1ccc(F)c2c1CC[C@H]2Oc1ccc(C2CC2C(=O)O)cc1` (stereo in doubt) [Example 33, 2-{4-[(R)-4-(2,6-Dimethyl-phenyl)-7-fluoro-indan-1-yloxy]-phenyl}-trans-cyclopropanecarboxylic acid], the 50% effective concentration (EC50) amounted to 2 nM. Compared with the last molecule, the EC50 is about 270-fold lower.
`COc1cc(O[C@@H]2CCc3c(OC(F)(F)F)cccc32)ccc1[C@@H]1C[C@H]1C(=O)O` [Example 8] gave an EC50 of 407 nM.
The same measure for `O=C(O)[C@@H]1C[C@H]1c1ccc(O[C@@H]2CCc3c2cccc3C(F)(F)F)cc1` [Example 9]: 457 nM; for `O=C(O)[C@H]1C[C@@H]1c1ccc(O[C@@H]2CCc3c2cccc3C(F)(F)F)cc1` [Example 10]: 13 nM; for `Cc1cc(OCCCS(C)(=O)=O)cc(C)c1-c1ccc(F)c2c1CC[C@H]2Oc1ccc([C@H]2C[C@@H]2C(=O)O)cc1` [Example 11]: 9 nM.
Under `Cc1cc(OCCCS(C)(=O)=O)cc(C)c1-c1ccc(F)c2c1CC[C@H]2Oc1ccc([C@@H]2C[C@H]2C(=O)O)cc1` [Example 12, (1R,2R)-2-(4-{(R)-7-Fluoro-4-[4-(3-methanesulfonyl-propoxy)-2,6-dimethyl-phenyl]-indan-1-yloxy}-phenyl)-cyclopropanecarboxylic acid] stands 328 nM; under `Cc1cc(OCCCS(C)(=O)=O)cc(C)c1-c1ccc(F)c2c1CC[C@H]2Oc1ccc(C2CC2C(=O)O)cc1` (stereo partly drawn) [Example 13], 13 nM.
Molecule `Cc1cc(OCC(C)(C)S(C)(=O)=O)cc(C)c1-c1ccc(F)c2c1CC[C@H]2Oc1ccc([C@H]2C[C@@H]2C(=O)O)cc1` [Example 14, (1S,2S)-2-(4-{(R)-7-Fluoro-4-[4-(2-methanesulfonyl-2-methyl-propoxy)-2,6-dimethyl-phenyl]-indan-1-yloxy}-phenyl)-cyclopropanecarboxylic acid] had a concentration giving a half-maximal response (EC50) of 8 nM.
The same measure for `Cc1cc(C(=O)NCC(C)(C)O)cc(C)c1-c1ccc(F)c2c1CC[C@H]2Oc1ccc([C@H]2C[C@@H]2C(=O)O)cc1` [Example 15, (1S,2S)-2-(4-{(R)-7-Fluoro-4-[4-(2-hydroxy-2-methyl-propylcarbamoyl)-2,6-dimethyl-phenyl]-indan-1-yloxy}-phenyl)-cyclopropanecarboxylic acid]: 12 nM.
The same measure for `O=C(O)[C@H]1C[C@@H]1c1ccc(O[C@@H]2CCc3cccc(F)c32)cc1` [Example 16, (1S,2S)-2-[4-((R)-7-Fluoro-indan-1-yloxy)-phenyl]-cyclopropanecarboxylic acid]: 304 nM.
Consider `Cc1cc(OCCC(C)(C)O)cc(C)c1-c1ccc(F)c2c1CC[C@H]2Oc1ccc([C@H]2C[C@@H]2C(=O)O)cc1` [Example 17, (1S,2S)-2-(4-{(R)-7-Fluoro-4-[4-(3-hydroxy-3-methyl-butoxy)-2,6-dimethyl-phenyl]-indan-1-yloxy}-phenyl)-cyclopropanecarboxylic acid], for which a half-maximal effect (EC50) was put at 4 nM.
Regarding `Cc1cc(OCC2(S(C)(=O)=O)CC2)cc(C)c1-c1ccc(F)c2c1CC[C@H]2Oc1ccc([C@H]2C[C@@H]2C(=O)O)cc1` [Example 18, (1S,2S)-2-(4-{(R)-7-Fluoro-4-[4-(1-methanesulfonyl-cyclopropylmethoxy)-2,6-dimethyl-phenyl]-indan-1-yloxy}-phenyl)-cyclopropane-carboxylic acid], the EC50 amounted to 5 nM.
Under `CNC(=O)c1cc(C)c(-c2ccc(F)c3c2CC[C@H]3Oc2ccc([C@H]3C[C@@H]3C(=O)O)cc2)c(C)c1` [Example 19, (1S,2S)-2-{4-[(R)-4-(2,6-Dimethyl-4-methylcarbamoyl-phenyl)-7-fluoro-indan-1-yloxy]-phenyl}-cyclopropane-carboxylic acid] stands 13 nM; under `Cc1cc(OCC2CN(S(C)(=O)=O)C2)cc(C)c1-c1ccc(F)c2c1CC[C@H]2Oc1ccc([C@H]2C[C@@H]2C(=O)O)cc1` [Example 20, (1S,2S)-2-(4-{(R)-7-Fluoro-4-[4-(1-methanesulfonyl-azetidin-3-ylmethoxy)-2,6-dimethyl-phenyl]-indan-1-yloxy}-phenyl)-cyclopropanecarboxylic acid], 10 nM; under `Cc1cc(OCC2CCS(=O)(=O)CC2)cc(C)c1-c1ccc(F)c2c1CC[C@H]2Oc1ccc([C@H]2C[C@@H]2C(=O)O)cc1` [Example 21], 7 nM.
`Cc1cc(OCCN2CCCS2(=O)=O)cc(C)c1-c1ccc(F)c2c1CC[C@H]2Oc1ccc([C@H]2C[C@@H]2C(=O)O)cc1` [Example 22] registered an EC50 of 12 nM.
The same measure for `Cc1cc(O[C@@H]2CCN(S(C)(=O)=O)C2)cc(C)c1-c1ccc(F)c2c1CC[C@H]2Oc1ccc([C@H]2C[C@@H]2C(=O)O)cc1` [Example 23]: 13 nM.
The same measure for `Cc1cc(O[C@H]2CCN(S(C)(=O)=O)C2)cc(C)c1-c1ccc(F)c2c1CC[C@H]2Oc1ccc([C@H]2C[C@@H]2C(=O)O)cc1` [Example 24]: 18 nM; for `Cc1cc(O[C@@H]2CCOC2)cc(C)c1-c1ccc(F)c2c1CC[C@H]2Oc1ccc([C@H]2C[C@@H]2C(=O)O)cc1` [Example 25]: 13 nM; for `Cc1cc(OC(C)(C)CO)cc(C)c1-c1ccc(F)c2c1CC[C@H]2Oc1ccc([C@H]2C[C@@H]2C(=O)O)cc1` [Example 26]: 8 nM.
Under `Cc1cc(OCC(C)(C)O)cc(C)c1-c1ccc(F)c2c1CC[C@H]2Oc1ccc([C@H]2C[C@@H]2C(=O)O)cc1` [Example 27, (1S,2S)-2-(4-{(R)-7-Fluoro-4-[4-(2-hydroxy-2-methyl-propoxy)-2,6-dimethyl-phenyl]-indan-1-yloxy}-phenyl)-cyclopropanecarboxylic acid] stands 8 nM.

The EC50 is the concentration giving half of the maximal effect. Higher therefore signals a less potent agent.
